Measured values reported in publication PMC6401629, “Lipid Nanoparticles-Encapsulated YF4: A Potential Therapeutic Oral Peptide Delivery System for Hypertension Treatment” (Frontiers in Pharmacology, 2019).
Residues, ends and D or L forms follow the SMILES beside them.

What was measured:
[1] = Pharmacokinetics after a single gavage administration; type: in vivo; conditions: SD rats, single gavage 1.2 mg/kg, plasma, DAS 2.0, mean ± SD, n = 6
From the text: Six 8-week-old male SD rats with weight between 180 to 220 g were purchased from the Laboratory Animal Center of Sichuan University (Sichuan University, Chengdu, Sichuan, China). The animals were maintained under 12-hour dark and light cycles at 22℃ and free access to food and water. After a week of adaptation, these SD rats were admitted to experiments. Absorption of YF4 in SD rats following a single oral administration of YF4 was investigated. At the end of the experiment, the rats were sacrificed inside an isoflurane chamber to avoid unnecessary suffering. The experiments were approved and supervised by the State Key Laboratory of Biotherapy Animal Care and Use Committee (Sichuan University, Chengdu, Sichuan, China).
SD rats were used to investigate the […] of YF4. Rats were chosed randomly for oral administration of free YF4 at the dose of 1.2 mg/kg (n=6), respectively. Before the experiment, all rats were fasted for 12 h with free access to water. Each rat was administered an oral volume of 0.5 mL/100 g. Approximate 200 μL of blood samples were collected from the orbit into a heparin zed centrifuge tube before and at 0.083, 0.25, 0.5, 0.75, 1, 1.5, 2, 3, 4, 6, 8, 12 h post-dosing. All blood samples were centrifuged at 3500 rpm (4 ℃) for 10 min. The plasma samples were collected and stored at -20 ℃ until analyzed by Drug and Statistics 2.0 (DAS 2.0) (Mathematical Pharmacology Professional Committee of China, Shanghai, China).

[2] = system: spontaneously hypertensive rats (SHRs); test: In vivo antihypertensive efficacy, tail-cuff blood pressure; set-up: species or system rat; conditions: single oral dose 5 mg/kg, 2 h after administration, n = 6
From the text: Twelve weeks old male spontaneously hypertensive rats (SHRs) with a circa weight between 250 and 320 g were purchased from Beijing Vital River Laboratory Animal Technology Co., Ltd. After a week of adaption, animals were admitted to experiments (six per group). […] The rats were free access to food and water. […] In this study, groups of rats were used for the oral administration of saline group, Captopril group vs. YF4 group, YF4 vs. YF4-NPs vs YF4-LNPs.
Simultaneously, the captopril and the saline water were used as the positive control and control group, respectively. SHRs were randomly divided into three groups (n = 6). Control group were treated with 0.9% saline water, and the other groups were treated with captopril (5 mg/kg) or the same dose of YF4 dissolved in saline water. All rats were administered at a single oral dose.
In YF4-LNPs pharmacodynamics study, the SHRs were randomly divided into three groups (n = 6). Control group were treated with 0.9% saline water, the other groups of SHRs were treated withYF4 and YF4-LNPs. All the groups of rats were given the same dose at 0.8 mg/kg body weight. Blood pressure was indirectly recorded as described above. […] All the SBP were measured for three times to get the average value at each time point.

Row | Structure (SMILES) | Cmax [1] | AUC(0-inf) ([1]; male, rat, po) | CL/F ([1]; male, rat, po, read-out: CLz/F (converted)) | MRT ([1]; male, rat, po, read-out: MRT(0-t)) | half-life ([1]; male, rat, po, read-out: T1/2z (half-life) (converted)) | blood pressure lowing (BPL) effect compared with saline group [2]
1 | CC(C)C[C@H](NC(=O)CNC(=O)[C@@H](N)Cc1ccc(O)cc1)C(=O)N[C@@H](Cc1ccccc1)C(=O)O [YF4, Tyr-Gly-Leu-Phe] (H-YGLF-OH) | 15470 ± 3050 ng/mL | 45400 ± 9420 ng·h/mL | 0.333 mL/min/kg | 3.17 ± 0.68 h | 2.91 ± 0.05 h | 
2 | C[C@H](CS)C(=O)N1CCC[C@H]1C(=O)O [captopril] |  |  |  |  |  | 23.0 mmHg
